# Laboratory results published in ChEMBL document CHEMBL1201862, “PubChem BioAssay data set” (2004).
#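 Results reflect a 48-hour exposure of cells in 96-well plates to compound at five concentrations. The concentration for 50% growth inhibition is given as GI50.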 Active and inactive are the calls of the source. No stated cut-off is given here; in the data, active = GI50 up to about 1.1 µM and inactive = higher.
# What was measured:
# Test in all cases: inhibition of tumour cell growth, NCI panel, 48 h
# MDA-N = test system: MDA-N
# A498 = test system: A498
# K562 = test system: K562
# NCI-H522 = test system: NCI-H522
# COLO 205 = test system: COLO 205
# CCRF-CEM = test system: CCRF-CEM
# NCI/ADR-RES = test system: NCI/ADR-RES
# SK-MEL-28 = test system: SK-MEL-28
# CAKI-1 = test system: CAKI-1
# ACHN = test system: ACHN
# NCI-H23 = test system: NCI-H23
# M14 = test system: M14
# U-251 = test system: U-251
# SNB-75 = test system: SNB-75
# HT-29 = test system: HT-29
# MDA-MB-231 = test system: MDA-MB-231
# SF-268 = test system: SF-268
# OVCAR-3 = test system: OVCAR-3
# SR = test system: SR
Structure (SMILES),GI50 (MDA-N),GI50 (A498),GI50 (K562),GI50 (NCI-H522),GI50 (COLO 205),GI50 (CCRF-CEM),GI50 (NCI/ADR-RES),GI50 (SK-MEL-28),GI50 (CAKI-1),GI50 (ACHN),GI50 (NCI-H23),GI50 (M14),GI50 (U-251),GI50 (SNB-75),GI50 (HT-29),GI50 (MDA-MB-231),GI50 (SF-268),GI50 (OVCAR-3),GI50 (SR)
COc1cc2cc(C(=O)N3CC(CCl)c4c3cc(NC(=O)C(C)Nc3c([N+](=O)[O-])cc(C(=O)NCCN(C)C)cc3[N+](=O)[O-])c3ccccc43)[nH]c2c(OC)c1OC (configuration not stated),0.158 µM (active),0.212 µM (active),0.0363 µM (active),0.0172 µM (active),0.0515 µM (active),< 0.01 µM (active),0.441 µM (active),0.123 µM (active),0.22 µM (active),0.032 µM (active),< 0.01 µM (active),0.187 µM (active),0.0178 µM (active),0.0272 µM (active),0.055 µM (active),0.18 µM (active),0.0202 µM (active),0.201 µM (active),
Cc1noc(NS(=O)(=O)c2ccc(NC(=O)c3ccc4[nH]c5ccccc5c(=O)c4c3)cc2)c1C,57.8 µM (inactive),,28.1 µM (inactive),26.4 µM (inactive),37.2 µM (inactive),23.7 µM (inactive),> 100 µM (inactive),35.4 µM (inactive),> 100 µM (inactive),53.8 µM (inactive),93.3 µM (inactive),> 100 µM (inactive),27.4 µM (inactive),32.1 µM (inactive),39.3 µM (inactive),45.9 µM (inactive),40.7 µM (inactive),23.6 µM (inactive),29.1 µM (inactive)
CCCCC[C@@H]1OC(=O)[C@@]2(CC3c4ccccc4C2c2ccccc23)[C@H]1C(=O)OC,79.6 µM (inactive),13.4 µM (inactive),15.8 µM (inactive),,14.2 µM (inactive),17.2 µM (inactive),64.6 µM (inactive),,42.6 µM (inactive),45.5 µM (inactive),21.9 µM (inactive),55.2 µM (inactive),45 µM (inactive),,17.3 µM (inactive),> 100 µM (inactive),> 100 µM (inactive),92.5 µM (inactive),10.1 µM (inactive)
CS(=O)(=O)OCOS(C)(=O)=O,> 100 µM (inactive),> 100 µM (inactive),> 100 µM (inactive),,75.3 µM (inactive),18.5 µM (inactive),> 100 µM (inactive),> 100 µM (inactive),69 µM (inactive),58.9 µM (inactive),69 µM (inactive),> 100 µM (inactive),> 100 µM (inactive),,48.3 µM (inactive),> 100 µM (inactive),,> 100 µM (inactive),20.2 µM (inactive)
Cc1ccc(-c2c(C#N)c(-c3ccccc3)n(NS(=O)(=O)c3ccccc3)c(=O)c2C#N)cc1,92.7 µM (inactive),> 100 µM (inactive),> 100 µM (inactive),88.1 µM (inactive),> 100 µM (inactive),32.1 µM (inactive),63.5 µM (inactive),> 100 µM (inactive),> 100 µM (inactive),> 100 µM (inactive),,93.3 µM (inactive),81.7 µM (inactive),67.6 µM (inactive),> 100 µM (inactive),> 100 µM (inactive),63.1 µM (inactive),,
COc1cc2c(cc1Cl)[n+]([O-])c(C#N)c(N1CCN(c3ccc([N+](=O)[O-])cc3)CC1)[n+]2[O-],24 µM (inactive),,9.29 µM (inactive),5.7 µM (inactive),34.4 µM (inactive),8.73 µM (inactive),15.5 µM (inactive),34.8 µM (inactive),48.5 µM (inactive),14.7 µM (inactive),17.1 µM (inactive),17.5 µM (inactive),7.78 µM (inactive),17.4 µM (inactive),36.9 µM (inactive),41.8 µM (inactive),13.1 µM (inactive),52.6 µM (inactive),2.86 µM (inactive)
CC(C)CC(=O)NC(NC(C)C)(C(F)(F)F)C(F)(F)F,> 100 µM (inactive),,> 100 µM (inactive),> 100 µM (inactive),> 100 µM (inactive),> 100 µM (inactive),> 100 µM (inactive),> 100 µM (inactive),> 100 µM (inactive),> 100 µM (inactive),,,> 100 µM (inactive),> 100 µM (inactive),> 100 µM (inactive),> 100 µM (inactive),> 100 µM (inactive),,> 100 µM (inactive)
O=C(OCC(Cl)(Cl)Cl)N1CC[C@H](C2CCCCC2)C1,34.9 µM (inactive),,21.1 µM (inactive),17.1 µM (inactive),18.8 µM (inactive),15.5 µM (inactive),15 µM (inactive),,31.6 µM (inactive),19.3 µM (inactive),15.3 µM (inactive),20.7 µM (inactive),1.09 µM (active),20.8 µM (inactive),,35.5 µM (inactive),21 µM (inactive),16.6 µM (inactive),16.3 µM (inactive)
CC(C)(C)OC(=O)NCCC1CNc2ccccc21 (configuration not stated),> 100 µM (inactive),> 100 µM (inactive),> 100 µM (inactive),> 100 µM (inactive),> 100 µM (inactive),,> 100 µM (inactive),> 100 µM (inactive),> 100 µM (inactive),> 100 µM (inactive),> 100 µM (inactive),> 100 µM (inactive),> 100 µM (inactive),> 100 µM (inactive),> 100 µM (inactive),> 100 µM (inactive),> 100 µM (inactive),> 100 µM (inactive),
COc1cccc(/N=N/C(=NNC(=O)c2ccc(C)cc2)c2ccc(N(C)C)cc2)c1,39.7 µM (inactive),,44 µM (inactive),> 100 µM (inactive),44.3 µM (inactive),> 100 µM (inactive),> 100 µM (inactive),> 100 µM (inactive),> 100 µM (inactive),> 100 µM (inactive),> 100 µM (inactive),> 100 µM (inactive),> 100 µM (inactive),,> 100 µM (inactive),> 100 µM (inactive),> 100 µM (inactive),65.2 µM (inactive),62.5 µM (inactive)
COc1cc2ccnc3c2c(c1O)N(C)C=C3,3.91 µM (inactive),15.9 µM (inactive),4.68 µM (inactive),1.59 µM (inactive),20.7 µM (inactive),3.88 µM (inactive),18.7 µM (inactive),24.9 µM (inactive),4.92 µM (inactive),9.48 µM (inactive),17.1 µM (inactive),17 µM (inactive),24.9 µM (inactive),21.5 µM (inactive),,22.1 µM (inactive),17.7 µM (inactive),4.62 µM (inactive),
COc1ccc(/N=C2\C(=N/c3ccc(OC)cc3)N(c3ccccc3[N+](=O)[O-])C(=S)N2c2ccc(OC)cc2)cc1,49.8 µM (inactive),,35.5 µM (inactive),96.4 µM (inactive),17.1 µM (inactive),,> 100 µM (inactive),> 100 µM (inactive),81.5 µM (inactive),> 100 µM (inactive),> 100 µM (inactive),> 100 µM (inactive),> 100 µM (inactive),> 100 µM (inactive),,7.78 µM (inactive),> 100 µM (inactive),> 100 µM (inactive),> 100 µM (inactive)
Cc1cc(Cc2c(F)c(F)c(Cc3cc(C)no3)c(F)c2F)on1,> 100 µM (inactive),> 100 µM (inactive),> 100 µM (inactive),> 100 µM (inactive),> 100 µM (inactive),> 100 µM (inactive),> 100 µM (inactive),> 100 µM (inactive),12.2 µM (inactive),> 100 µM (inactive),65.8 µM (inactive),> 100 µM (inactive),64.1 µM (inactive),29 µM (inactive),> 100 µM (inactive),46.6 µM (inactive),21.7 µM (inactive),> 100 µM (inactive),
O=c1oc2ccc3ccccc3c2cc1-c1cn2ccsc2n1,21.4 µM (inactive),,17.3 µM (inactive),17.1 µM (inactive),16.1 µM (inactive),3.89 µM (inactive),29.1 µM (inactive),26 µM (inactive),23.8 µM (inactive),16.1 µM (inactive),25.2 µM (inactive),24 µM (inactive),71.9 µM (inactive),> 100 µM (inactive),18 µM (inactive),14.1 µM (inactive),24.8 µM (inactive),17.9 µM (inactive),9.27 µM (inactive)
O=C(CCCCCNC(=O)c1ccc(Cl)cc1)NO,2.96 µM (inactive),,2.84 µM (inactive),2.19 µM (inactive),2.99 µM (inactive),2.42 µM (inactive),1.15 µM (inactive),5.32 µM (inactive),4.05 µM (inactive),5.19 µM (inactive),5.97 µM (inactive),5.71 µM (inactive),5.04 µM (inactive),1.49 µM (inactive),2.98 µM (inactive),3.61 µM (inactive),6.87 µM (inactive),2.55 µM (inactive),2.54 µM (inactive)
COc1ccc(N2C(=O)C3c4[nH]c5ccccc5c4C4C(C)CCCC4C3C2=O)cc1 (configuration not stated),3.19 µM (inactive),45.5 µM (inactive),9.14 µM (inactive),7.94 µM (inactive),> 50.7 µM (inactive),5.66 µM (inactive),14.9 µM (inactive),> 71.1 µM (inactive),36.1 µM (inactive),47.8 µM (inactive),54.7 µM (inactive),> 41.5 µM (inactive),> 57.7 µM (inactive),19.7 µM (inactive),29.7 µM (inactive),20.4 µM (inactive),41 µM (inactive),26.1 µM (inactive),
